# Assay results: patent US20100298141A1, “SUBSTITUTED PYRIDINE N-OXIDE HERBICIDES” (E. I. DU PONT DE NEMOURS AND COMPANY, priority 2007, published 2010)
# Assays:
# [1] = system: morningglory; assay: Test A pre-/postemergence greenhouse test; format: in vivo, Ipomoea spp.; conditions: for Plant response rating, Morningglory: 0 to 100 scale where 0 is no effect and 100 is complete control; for Morningglory plant response rating: 0 to 100 scale
# Procedure, shortened: (§1)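 Pots of loam–sand soil sown with the test species are sprayed preemergence on the soil surface; emerged seedlings (1–2 leaves, 2–10 cm) are sprayed postemergence at the same time. The vehicle is a non-phytotoxic solvent mixture with surfactant. Injury is scored visually after ~10 d in greenhouse.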
# [2] = system: wheat; assay: Test C pre-/postemergence test; format: in vivo, Triticum aestivum
# Procedure, shortened: (§2)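 Compounds in a non-phytotoxic solvent with surfactant applied preemergence to seeded pots and, at the same time, postemergence to plants 2–18 cm tall (1- to 4-leaf stage). Paddy tests: pots flooded to 3 cm, compound applied into the water, depth held throughout.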
# [3] = system: Surinam grass; assay: Test C pre-/postemergence test; format: in vivo, Brachiaria decumbens
# Procedure, shortened: as §2
# [4] = system: lambsquarters; assay: Test C pre-/postemergence test; format: in vivo, Chenopodium album; conditions: Postemergence; for Plant response rating, Lambsquarters: scale 0 to 100, 0 no effect, 100 complete control
# Procedure, shortened: as §2
# [5] = system: bermudagrass; assay: Test C pre-/postemergence test; format: in vivo, Cynodon dactylon
# Procedure, shortened: as §2
# [6] = system: rice; assay: Test C flooded paddy test; format: in vivo, Oryza sativa; conditions: Flood, 62 g ai/ha; scale 0 to 100 (0 no effect, 100 complete control)
# Procedure, shortened: (§3)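 Test compounds are applied straight into paddy water held 3 cm above the soil surface, with that flood maintained for the whole test. After 13 to 15 days in the greenhouse, each species is scored visually relative to controls.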
# [7] = system: umbrella sedge; assay: Test C flooded paddy test; format: in vivo, Cyperus difformis; conditions: Flood, 62 g ai/ha; scale 0 to 100 (0 no effect, 100 complete control)
# Procedure, shortened: as §3
# [8] = system: barnyardgrass; assay: Test A pre-/postemergence greenhouse test; format: in vivo, Echinochloa crus-galli; conditions: for Plant response rating, Barnyardgrass: 0 to 100 scale where 0 is no effect and 100 is complete control; for Barnyardgrass plant response rating: 0 to 100 scale
# Procedure, shortened: as §1
# [9] = system: corn; assay: Test A pre-/postemergence greenhouse test; format: in vivo, Zea mays; conditions: for Plant response rating, Corn: 0 to 100 scale where 0 is no effect and 100 is complete control; for Corn plant response rating: 0 to 100 scale
# Procedure, shortened: as §1
# [10] = system: wheat; assay: Test A pre-/postemergence greenhouse test; format: in vivo, Triticum aestivum; conditions: for Plant response rating, Wheat: 0 to 100 scale where 0 is no effect and 100 is complete control; for Wheat plant response rating: 0 to 100 scale
# Procedure, shortened: as §1
# [11] = system: redroot pigweed; assay: Test A pre-/postemergence greenhouse test; format: in vivo, Amaranthus retroflexus; conditions: for Plant response rating, Pigweed: 0 to 100 scale where 0 is no effect and 100 is complete control; for Pigweed plant response rating: 0 to 100 scale
# Procedure, shortened: as §1
# [12] = system: pigweed; assay: Test C pre-/postemergence test; format: in vivo, Amaranthus retroflexus
# Procedure, shortened: as §2
# [13] = system: crabgrass; assay: Test C pre-/postemergence test; format: in vivo, Digitaria sanguinalis
# Procedure, shortened: as §2
# [14] = system: giant foxtail; assay: Test A pre-/postemergence greenhouse test; format: in vivo, Setaria faberi; conditions: for Plant response rating, Foxtail, Giant: 0 to 100 scale where 0 is no effect and 100 is complete control; for Foxtail, Giant plant response rating: 0 to 100 scale
# Procedure, shortened: as §1
# [15] = system: common (oilseed) sunflower; assay: Test C pre-/postemergence test; format: in vivo, Helianthus annuus
# Source text: Seeds of plant species selected from blackgrass (Alopecurus myosuroides), downy brome (Bromus tectorum), green foxtail (Setaria viridis), Italian ryegrass (Lolium multiflorum), wheat (Triticum aestivum), wild oat (Avena fatua), catchweed bedstraw (Galium aparine), Russian thistle (Salsola kali), […] (Cynodon dactylon), Surinam grass (Brachiaria decumbens), cocklebur (Xanthium strumarium), corn (Zea mays), crabgrass (Digitaria sanguinalis), woolly cupgrass (Eriochloa villosa), giant foxtail (Setaria faberii), Goosegrass (Eleusin indica), johnsongrass (Sorghum halepense), kochia (Kochia scoparia), lambsquarters (Chenopodium album), morningglory (Ipomoea coccinea), eastern black nightshade (Solanum ptycanthum), yellow nutsedge (Cyperus esculentus), pigweed (Amaranthus retroflexus), common ragweed (Ambrosia elation), soybean (Glycine max), common (oilseed) sunflower (Helianthus annuus), and velvetleaf (Abutilon theophrasti) were planted and treated preemergence with test chemicals formulated in a non-phytotoxic solvent mixture which included a surfactant. At the same time, plants selected from these crop and weed species and also winter barley (Hordeum vulgare), canarygrass (Phalaris minor), and chickweed (Stellaria media) were treated with postemergence applications of some of the test chemicals formulated in the same manner. Plants ranged in height from 2 to 18 cm (1- to 4-leaf stage) for postemergence treatments. […] At time of treatment, test pots were flooded to 3 cm above the soil surface, treated by application of test compounds directly to the paddy water, and then maintained at that water depth for the duration of the test. […] A dash (-) response means no test result.
# [16] = system: Goosegrass; assay: Test C pre-/postemergence test; format: in vivo, Eleusin indica
# Procedure, shortened: as §2
# [17] = Postemergence, 500 g ai/ha, 0 is no effect, 100 is complete control
# [18] = Preemergence, 125 g ai/ha, 0 no effect, 100 complete control
# [19] = 62 g ai/ha, Preemergence, scale 0 to 100
# [20] = 125 g ai/ha, preemergence, scale 0 (no effect) to 100 (complete control)
# [21] = Postemergence, 125 g ai/ha, scale 0 to 100, 0 no effect, 100 complete control
# [22] = Postemergence, 250 g ai/ha, scale 0 to 100, 0 no effect, 100 complete control
# [23] = Preemergence, 31 g ai/ha, scale 0 to 100 (0 no effect, 100 complete control)
# [24] = preemergence, 250 g ai/ha, scale 0 (no effect) to 100 (complete control)
# [25] = Postemergence, 62 g ai/ha, scale 0 to 100, 0 no effect, 100 complete control
smiles,measurement,setting,value
Cn1nc(C(F)(F)F)c(C[S+]([O-])c2ccc(F)c[n+]2[O-])c1OCC(F)(F)F (stereo not shown) [Compound 67],"Plant response rating, Morningglory","[1]; Postemergence, 125 g ai/ha",70
same,Morningglory plant response rating,[1]; [17],100
same,Morningglory plant response rating,[1]; [18],70
same,"Plant response rating, Morningglory","[1]; Preemergence, 500 g ai/ha",100
same,Wheat plant response rating,[2]; [19],98
same,Wheat plant response rating,[2]; [20],100
same,"Plant response rating (0 to 100), Wheat","[2]; Postemergence, 31 g ai/ha",25
same,"Plant response rating (0 to 100), Wheat","[2]; Postemergence, 62 g ai/ha",30
same,"Plant response rating, Wheat",[2]; [21],70
same,"Plant response rating, Wheat",[2]; [22],85
same,"Plant response rating, Wheat",[2]; [23],40
same,Wheat plant response rating,[2]; [24],100
same,Surinam Grass plant response rating,[3]; [19],100
same,Surinam Grass plant response rating,[3]; [20],100
same,"Plant response rating (0 to 100), Surinam Grass","[3]; Postemergence, 31 g ai/ha",0
same,"Plant response rating (0 to 100), Surinam Grass","[3]; Postemergence, 62 g ai/ha",0
same,"Plant response rating, Surinam Grass",[3]; [21],30
same,"Plant response rating, Surinam Grass",[3]; [22],45
same,"Plant response rating, Surinam Grass",[3]; [23],85
same,Surinam Grass plant response rating,[3]; [24],100
same,"Plant response rating (0 to 100), Lambsquarters",[4]; 31 g ai/ha,0
same,"Plant response rating, Lambsquarters",[4]; 62 g ai/ha,0
same,"Plant response rating, Lambsquarters",[4]; 125 g ai/ha,0
same,"Plant response rating, Lambsquarters",[4]; 250 g ai/ha,10
same,Bermudagrass plant response rating,"[5]; 62 g ai/ha, Preemergence, scale 0 to 100 (0 no effect, 100 complete control)",100
same,Bermudagrass plant response rating,[5]; [20],100
same,"Plant response rating (0 to 100), Bermudagrass","[5]; Postemergence, 31 g ai/ha",0
same,"Plant response rating, Bermudagrass",[5]; [25],0
same,"Plant response rating, Bermudagrass",[5]; [21],0
same,"Plant response rating, Bermudagrass",[5]; [22],70
same,"Plant response rating, Bermudagrass",[5]; [23],90
same,Bermudagrass plant response rating,[5]; [24],100
same,"Plant response rating, Rice",[6],60
same,"Plant response rating, Sedge, Umbrella",[7],100
same,"Plant response rating, Barnyardgrass","[8]; Postemergence, 125 g ai/ha",90
same,Barnyardgrass plant response rating,[8]; [17],90
same,Barnyardgrass plant response rating,[8]; [18],90
same,"Plant response rating, Barnyardgrass","[8]; Preemergence, 500 g ai/ha",100
same,"Plant response rating, Corn","[9]; Postemergence, 125 g ai/ha",60
same,Corn plant response rating,[9]; [17],90
same,Corn plant response rating,[9]; [18],0
same,"Plant response rating, Corn","[9]; Preemergence, 500 g ai/ha",80
same,"Plant response rating, Wheat","[10]; Postemergence, 125 g ai/ha",60
same,Wheat plant response rating,[10]; [17],70
same,Wheat plant response rating,[10]; [18],60
same,"Plant response rating, Wheat","[10]; Preemergence, 500 g ai/ha",100
same,"Plant response rating, Pigweed","[11]; Postemergence, 125 g ai/ha",80
same,Pigweed plant response rating,[11]; [17],100
same,Pigweed plant response rating,[11]; [18],100
same,"Plant response rating, Pigweed","[11]; Preemergence, 500 g ai/ha",100
same,Pigweed plant response rating,[12]; [19],55
same,Pigweed plant response rating,[12]; [20],100
same,"Plant response rating (0 to 100), Pigweed","[12]; Postemergence, 31 g ai/ha",0
same,"Plant response rating (0 to 100), Pigweed","[12]; Postemergence, 62 g ai/ha",0
same,"Plant response rating, Pigweed",[12]; [21],0
same,"Plant response rating, Pigweed",[12]; [22],60
same,"Plant response rating, Pigweed",[12]; [23],50
same,Pigweed plant response rating,[12]; [24],100
same,"Crabgrass, Large plant response rating",[13]; [19],100
same,"Crabgrass, Large plant response rating",[13]; [20],100
same,"Plant response rating (0 to 100), Crabgrass, Large","[13]; Postemergence, 31 g ai/ha",0
same,"Plant response rating, Crabgrass, Large",[13]; [25],0
same,"Plant response rating, Crabgrass, Large",[13]; [21],10
same,"Plant response rating, Crabgrass, Large",[13]; [22],60
same,"Plant response rating, Crabgrass, Large",[13]; [23],60
same,"Crabgrass, Large plant response rating",[13]; [24],100
same,"Plant response rating, Foxtail, Giant","[14]; Postemergence, 125 g ai/ha",90
same,"Foxtail, Giant plant response rating",[14]; [17],100
same,"Foxtail, Giant plant response rating",[14]; [18],100
same,"Plant response rating, Foxtail, Giant","[14]; Preemergence, 500 g ai/ha",100
same,Sunflower plant response rating,[15]; [19],85
same,Sunflower plant response rating,[15]; [20],100
same,"Plant response rating, Sunflower",[15]; [23],45
same,Sunflower plant response rating,[15]; [24],100
same,Goosegrass plant response rating,[16]; [19],100
same,Goosegrass plant response rating,[16]; [20],100
same,"Plant response rating (0 to 100), Goosegrass","[16]; Postemergence, 31 g ai/ha",0
same,"Plant response rating, Goosegrass",[16]; [25],0
same,"Plant response rating, Goosegrass",[16]; [21],50
same,"Plant response rating, Goosegrass",[16]; [22],90
same,"Plant response rating, Goosegrass",[16]; [23],100
same,Goosegrass plant response rating,[16]; [24],100
